The structures appear in SMILES notation.

Data set [1] is described as follows: Tolerability of daily dosing in mice. Format: in vivo. The note with it: 100 mg/kg given daily.
Data set [2] relates to SK-MEL-239 C4 tumors (p61 V600E). The data set is described as follows: SK-MEL-239 C4 subcutaneous xenograft. The class given is in vivo, nude mice. The settings on record: for activity against SK-MEL-239 C4 tumors (growth): daily for 32 days, 75 mg/kg vemurafenib or 100 mg/kg BGB659.
The test system of data set [3] is SKBR3 breast cancer (HER2-activated wild type RAS). The data set is described as follows: RAS activity and p-ERK in SKBR3 cells. Format: cell-based.
Data set [4] relates to second site of the WT RAF dimer in SK-MEL-30 NRAS mutant cells. Format: cell-based. The note with it: p-ERK; first site occupied by LGX818.
The subject of data set [5] is SK-MEL-2 melanoma (mutant NRAS Q61R). The data set is described as follows: p-ERK in SK-MEL-2 cells. Format: cell-based. The settings on record: 1 hr.
Data set [6] deals with RAF mutants that constitutively dimerize. The data set is described as follows: ERK signaling in SKBR3 cells expressing RAF mutants that constitutively dimerize. Format: cell-based. The note with it: SKBR3, 1 μM drug, 1 hr.
The test system of data set [7] is A549 lung cancer (mutant KRAS G12S). The data set is described as follows: p-ERK in A549 cells. The class given is cell-based. The settings on record: 1 hr.
Data set [8] relates to BRAF V600E T529N or p61 BRAF V600E T529N. The data set is described as follows: ERK signaling in cells expressing BRAF gatekeeper mutants. Format: cell-based. The note with it: cells expressing BRAF V600E T529N or p61 BRAF V600E T529N (gatekeeper mutation).
The next data set has as its system A375 (BRAF V600E) cells. The data set is described as follows: p-ERK in A375 cells. Format: cell-based.
Data set [9] deals with A375 in which NRAS Q61K is expressed. The data set is described as follows: p-ERK in A375 cells expressing NRAS Q61K. The class given is cell-based. The note with it: A375 with mutant NRAS overexpressed, 1 hr.
For another data set, the system named is SK-MEL-239 tumors. The data set is described as follows: SK-MEL-239 subcutaneous xenograft. The settings on record: for growth of SK-MEL-239 tumors: daily for 32 days, 75 mg/kg vemurafenib or 100 mg/kg BGB659; for ERK signaling in SK-MEL-239 tumors: tumor extracts, Western blot, 75 mg/kg vemurafenib or 100 mg/kg BGB659 daily. The class given is in vivo, nude mice.

The test system of data set [10] is SK-MEL-30 (NRAS Q61K) cells. The data set is described as follows: p-ERK in SK-MEL-30 cells, with and without drug washout. The class given is cell-based.
Data set [11] has as its system SK-MEL-239 parental cells (BRAF V600E). The data set is described as follows: p-ERK inhibition in SK-MEL-239 parental cells. Format: cell-based. The settings on record: read-out: concentration inhibiting monomer driven signaling (p-ERK IC50).
The test system of a further data set is BRAF V600E tumor cells. The data set is described as follows: ERK phosphorylation after drug washout in BRAF V600E tumor cells. The class given is cell-based. The note with it: 1 hr exposure then washout.
Data set [12] relates to SK-MEL-239 C4 clone (which expresses p61 BRAF V600E). The data set is described as follows: p-ERK inhibition in SK-MEL-239 C4 clone. The note with it: read-out: concentration inhibiting dimer signaling (p-ERK IC50). Format: cell-based.
The next data set has as its target p61 BRAF V600E (Homo sapiens, UniProt P15056, DEL169-380/V600E). The data set is described as follows: ERK signaling. Format: cell-based. The note with it: SKBR3, drug 1 hr.
The next data set addresses BRAF/CRAF heterodimers (Homo sapiens, UniProt P04049+P15056). The data set is described as follows: Induction of BRAF/CRAF heterodimers. Format: cell-based. The settings on record: HeLa and two melanoma cell lines with mutant NRAS, 1 hr.
Data set [13] relates to JVM-3, a BRAF K601N CLL cell line. The data set is described as follows: ERK signaling and proliferation of JVM-3. The class given is cell-based.
Where [14] appears, read: SK-MEL-30 (mutant NRAS, WT RAF).
The mark [15] stands for this setting: SK-MEL-30, 3 μM for 1 hr then washout.

With `CC(C)(N)c1cc(C(=O)N[C@@H]2CCc3ccc(Oc4ccnc5c4CCC(=O)N5)cc3C2)cc(C(F)(F)F)c1` [BGB659], the “weight loss or other toxicity” value in data set [1] is on record as “unassociated with weight loss or other obvious toxicity”. Moreover, the “activity against SK-MEL-239 C4 tumors (growth)” value in [2] is listed as “had activity”. Besides, in data set [2] (tumor extracts, Western blot, 75 mg/kg vemurafenib or 100 mg/kg BGB659 daily), the “ERK signaling in SK-MEL-239 C4 tumors” value is “only BGB659 inhibited”. The “decline of ERK phosphorylation” value is recorded as 40% in data set [3] (SKBR3, 1 μM, 1 hr) and 40% in data set [5] (SK-MEL-2, 1 μM). The “ERK phosphorylation at 10 μM” value in data set [3] (SKBR3, 10 μM, 1 hr) is “approached complete inhibition”; in data set [5] (SK-MEL-2, 10 μM), “approached complete inhibition”; in [7] (A549, 10 μM), “some residual activity remained”. The “potency for inhibition of monomers and the second site of dimers” value in [4] lay within 100 to 300 nM. Further, the “sensitivity of ERK signaling driven by RAF mutants that constitutively dimerize” value in data set [6] was “sensitive”. For the same compound, in data set [7] (A549, 1 μM), the “ERK phosphorylation at 1 μM” value was “declined to pretreatment levels”. In addition, in [8], the “ERK signaling resistant to the drug” value is given as “resistant”. Besides, the “inhibition of ERK signaling at 1 μM” value in the data set on A375 (BRAF V600E) cells (A375, 1 μM, 1 hr) is on record as “almost complete inhibition”; in data set [9], “almost complete inhibition”. Besides, the IC50 with A375 (BRAF V600E) cells (read-out: IC50 for inhibition of ERK signaling, A375, 1 hr) lay within 100 to 300 nM. Besides, the “growth of SK-MEL-239 tumors” value with SK-MEL-239 tumors is reported as “effectively inhibited”. The “ERK signaling in SK-MEL-239 tumors” value with SK-MEL-239 tumors was “potently inhibited”.

Take `COC(=O)N[C@@H](C)CNc1nccc(-c2cn(C(C)C)nc2-c2cc(Cl)cc(NS(C)(=O)=O)c2F)n1` [LGX818]: in [10] (setting [14]), the “concentration of peak induction of ERK” value came to 100 nM and the “concentrations causing concentration-dependent inhibition of ERK signaling” value lay in the range of 300 to 3000 nM. Further, in data set [10] (setting [15]), the “half-time of p-ERK rise after drug washout” value stood at 10 min and the “p-ERK 24 hr after washout relative to basal” value is on record as “three fold elevated compared to basal”. For the same compound, the “maximum p-ERK after drug washout relative to basal” value in data set [10] (SK-MEL-30, 3 μM for 1 hr then washout, maximum approximately 1 hr after washout) is listed as “about five times higher than basal”. Further, in [11], the IC50 stood at 14 nM. For the same compound, in the data set with A375 (BRAF V600E) cells (A375, 3 μM for 1 hr then washout), the “p-ERK after drug washout” value is reported as “remained inhibited in A375 for up to 24 hr”. For the same compound, in the data set on BRAF V600E tumor cells, the “ERK phosphorylation 1 hr after washout of the drug” value is recorded as “remains inhibited”. Moreover, the IC50 in data set [12] stood at 287 nM.

Consider `CC(C)(C)c1nc(-c2cccc(NS(=O)(=O)c3c(F)cccc3F)c2F)c(-c2ccnc(N)n2)s1` [dabrafenib], for which the “fold higher concentrations required to inhibit ERK driven by p61 V600E dimers than by p61 V600E R509H monomers” value on p61 BRAF V600E is reported as “same relative difference”. Moreover, the “induction of BRAF/CRAF heterodimers” value on BRAF/CRAF heterodimers was “equivalent and much greater than that caused by vemurafenib”.

Consider `CS(=O)(=O)CCNCc1ccc(-c2ccc3ncnc(Nc4ccc(OCc5cccc(F)c5)c(Cl)c4)c3c2)o1` [lapatinib], for which the “RAS activity and ERK signaling” value in data set [3] (SKBR3, 1 hr exposure) is recorded as “potently suppressed”.

Regarding `CCCS(=O)(=O)Nc1ccc(F)c(C(=O)c2c[nH]c3ncc(-c4ccc(Cl)cc4)cc23)c1F` [vemurafenib], the “activity against SK-MEL-239 C4 tumors (growth)” value in [2] is reported as “only the latter had activity”. Besides, the “sensitivity of ERK signaling driven by RAF mutants that constitutively dimerize” value in [6] is “resistant”. In addition, in data set [8], the “ERK signaling resistant to the drug” value is “resistant”. In addition, in [10] (setting [14]), the “effect on ERK signaling” value was “activates ERK signaling”. For the same compound, the “effect on ERK signaling and proliferation of JVM-3” value in [13] was “resistant”. Further, in the data set with BRAF V600E tumor cells, the “ERK phosphorylation 1 hr after washout of the drug” value is reported as “returned to pre-exposure levels”. In addition, in the data set with SK-MEL-239 tumors, the “growth of SK-MEL-239 tumors” value is reported as “effectively inhibited” and the “ERK signaling in SK-MEL-239 tumors” value was “potently inhibited”.

For the origin of these results see PMC4894664 (Cancer cell, 2015).
